# In patent US20250019388A1, “STAT3 DEGRADERS AND USES THEREOF” (priority 2021, published 2025):
# Experiments:
# [1] = test system: caspase 3/7; test: Caspase 3/7 activity in ALCL lines; type: cell-based, human; details: at similar concentrations
# [2] = test system: SU-DHL-1 xenografts; test: Antitumor activity in SU-DHL-1 cell-line xenograft model; type: in vivo, NOD SCID mice
# Experimental: (§1) The antitumor efficacy of Compound A ammonium hydrogen salt was evaluated in immunocompromised mice implanted with human ALCL cell lines SU-DHL-1 and SUP-M2. Protocols for testing STAT3 degraders in human cell line xenograft models can be found, for example, in WO 2020/206424, incorporated herein by reference.
# (§2) The antitumor activity of Compound A ammonium hydrogen salt was evaluated in a human SU-DHL-1 cell-line xenograft model established in NOD SCID female mice. Tumor bearing mice (n=5/group) were administered either 0 (vehicle; PBS), 5, 10, 15, or 45 mg/kg Compound A once weekly (QW; Days 0, 7, and 14) or 0 (vehicle; PBS), 10, or 30 mg/kg Compound A once every two weeks (Q2W; Days 0 and 14). Animals administered Compound A QW were monitored until Day 25 post first dose and those administered Compound A Q2W were monitored until Day 71 post first dose.
# [3] = test system: STAT3; test: STAT3 degradation potency in hepatocytes; type: cell-based; details: across human, rat, and dog
# [4] = test system: other STAT family members or other cellular proteins; test: Proteome wide assessment in PBMC; type: cell-based
# [5] = target: T1, STAT3 (Homo sapiens, UniProt P40763); test: STAT3 degradation in tumor, SU-DHL-1 tumor xenograft murine model; type: in vivo, mice; design: from tissue; host or cells: SU-DHL-1 xenograft tumour in immunocompromised mice; details: 10 mg/kg QW; observed for 48 hrs
# [6] = target: T2, STAT3 (Rattus norvegicus, UniProt P52631); test: PK/PD study in rats, STAT3 degradation in tissues; type: in vivo; details: IV administration
# T2 construct: from tissue
# [7] = Aqueous solubility; type: physicochemical
# Experimental: Compound A injection was manufactured as a frozen concentrated solution containing 10 mg/mL of free acid intended to be diluted with IV infusion vehicle. It has aqueous solubility greater than 10 mg/mL at pH 4.5 to 9.0 but less than 10 mg/mL at pH less than or equal to 3.
# [8] = test system: ALCL cell lines; test: Cellular phenotypic assays (GI50) in ALCL cell lines; type: cell-based; details: Homo sapiens; several ALCL cell lines
# [9] = test system: SUP-M2 xenografts; test: Antitumor activity in SUP-M2 cell-line xenograft model; type: in vivo, NOD SCID mice; details: for tumor regression: 2 day on/5 days off
# Experimental: as §1
# (§3) The antitumor activity of Compound A ammonium hydrogen salt was evaluated in a human SUP-M2 cell-line xenograft model established in NOD SCID female mice. Tumor bearing mice (n=5/group) were administered either 0 (vehicle; PBS), 10, 20, or 30 mg/kg Compound A QW (Days 0, 7, and 14), 10 or 20 mg/kg Compound A on a 2 days on/5 days off schedule (Days 0, 1, 7, 8, 14, and 15), or 0 (vehicle; PBS), 20, or 40 mg/kg Compound A Q2W (Days 0 and 14). Animals administered Compound A QW or 2 on/5 off were monitored until Day 25 post first dose, and those administered Compound A Q2W were monitored until Day 52 post first dose.
# [10] = Body weight in SUP-M2 xenograft study; type: in vivo, NOD SCID mice; details: IV route
# Experimental: as §3
# [11] = test system: SU-DHL-1 cell line; test: Washout experiments in the SU-DHL-1 cell line; type: cell-based, human
# [12] = target: T1, STAT3; test: Phase 1 study, STAT3 degradation in blood (PBMCs); type: in vivo; design: Observed STAT3 degradation of 50-80% in PBMCs at Dose Level 1; from tissue; host or cells: blood / PBMCs of patients dosed IV with Compound A; details: patients
# Text: Rationale: Targeted protein degraders represent a new therapeutic class of compounds that utilize the ubiquitin proteasome system to target the specific degradation of proteins.
# [13] = Phase 1 study, safety and tolerability; type: in vivo, human; details: patients, DL1
# Experimental: Rationale: Targeted protein degraders represent a new therapeutic class of compounds that utilize the ubiquitin proteasome system to target the specific degradation of proteins. Compound A is a protein degrader that targets signal transducers and activators of transcription (STAT)3, a transcription factor that plays an important role in hematological malignancies such as lymphomas and in solid tumors. Compound A is administered via intravenous infusion (IV) at the dose levels defined in the protocol on Days 1, 8, 15, and 22 of each 28-day cycle.
# Patients who provide informed consent and meet the eligibility criteria for the study will be enrolled and treated with Compound A IV on Days 1, 8, 15, and 22 of a 28-day cycle. Patients will remain on study treatment until disease progression, unacceptable toxicity, withdrawal of consent, any study-specific discontinuation criteria are met, or the Investigator determines that it is in the best interest of the patient to discontinue study treatment.
# Phase 1a: This part aims to characterize the safety and tolerability of IV weekly doses of Compound A in sequential cohorts. […]
# [14] = Body weight in SU-DHL-1 xenograft study; type: in vivo, NOD SCID mice; details: IV route, SU-DHL-1 study
# Experimental: as §2
# [15] = target: T1, STAT3; test: STAT3 degradation in human ALCL cell lines SU-DHL-1 and SUP-M2; type: cell-based; details: SU-DHL-1 and SUP-M2 cell lines
# T1 sequence (P40763 whole entry): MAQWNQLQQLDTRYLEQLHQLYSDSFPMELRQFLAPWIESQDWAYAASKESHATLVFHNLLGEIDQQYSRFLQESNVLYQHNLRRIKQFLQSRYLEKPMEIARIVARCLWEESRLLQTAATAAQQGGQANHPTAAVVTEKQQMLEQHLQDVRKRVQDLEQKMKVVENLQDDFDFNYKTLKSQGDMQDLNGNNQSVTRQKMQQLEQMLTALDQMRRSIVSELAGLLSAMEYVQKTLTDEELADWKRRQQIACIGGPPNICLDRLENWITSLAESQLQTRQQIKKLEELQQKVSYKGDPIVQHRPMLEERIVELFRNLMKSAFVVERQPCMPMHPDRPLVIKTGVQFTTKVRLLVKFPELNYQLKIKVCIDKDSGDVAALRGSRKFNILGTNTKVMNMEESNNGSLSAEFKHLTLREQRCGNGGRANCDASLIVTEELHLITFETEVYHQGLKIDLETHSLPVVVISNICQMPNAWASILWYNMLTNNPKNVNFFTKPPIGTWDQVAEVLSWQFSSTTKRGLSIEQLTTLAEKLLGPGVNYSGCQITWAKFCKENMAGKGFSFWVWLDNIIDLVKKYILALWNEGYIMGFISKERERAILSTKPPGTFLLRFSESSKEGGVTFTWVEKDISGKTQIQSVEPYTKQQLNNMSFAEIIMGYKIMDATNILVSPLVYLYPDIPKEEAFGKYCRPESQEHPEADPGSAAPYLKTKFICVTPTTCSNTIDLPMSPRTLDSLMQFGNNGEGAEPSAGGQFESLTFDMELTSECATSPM
# T2 sequence (P52631 whole entry): as the sequence (P40763 whole entry) above, with E311D, E760D counted along it
smiles,measurement,setting,value
"CC(=O)N1CC[C@H]2CC[C@@H](C(=O)N[C@@H](CCC(N)=O)COc3cccc(CCCC(=O)N[C@H](C(=O)N4C[C@H](O)C[C@H]4C(=O)N[C@@H](C)c4ccc(-c5scnc5C)cc4)C(C)(C)C)c3Cl)N2C(=O)[C@@H](NC(=O)c2cc3cc(C(=O)P(=O)(O)O)ccc3[nH]2)C1 [Compound A, (2-(((5S,8S,10aR)-3-acetyl-8-(((S)-5-amino-1-(2-chloro-3-(4-(((S)-1-((2S,4R)-4-hydroxy-2-(((S)-1-(4-(4-methylthiazol-5-yl)phenyl)ethyl)carbamoyl)pyrrolidin-1-yl)-3,3-dimethyl-1-oxobutan-2-yl)amino)-4-oxobutyl)phenoxy)-5-oxopentan-2-yl)carbamoyl)-6-oxodecahydropyrrolo[1,2-a][1,5]diazocin-5-yl)carbamoyl)-1H-indole-5-carbonyl)phosphonic acid]","caspase 3/7 activity, a marker of apoptosis",[1],induced caspase 3/7 activity
same,tumor growth inhibition (TGI),[2]; 5 mg/kg QW IV,79.9%
same,TGI,[2]; 10 mg/kg Q2W IV,89.8%
same,tumor regression,[2]; 10 mg/kg QW IV,complete regression
same,tumor regression,[2]; 15 mg/kg QW IV,complete regressions
same,TGI,[2]; 30 mg/kg Q2W IV,99.8%
same,tumor regression,"[2]; 30 mg/kg Q2W IV, all animals",complete tumor regressions
same,tumor regression,[2]; 45 mg/kg QW IV,complete regressions
same,degradation potency of STAT3 in hepatocytes,[3],comparable degradation potency
same,selectivity of degradation,[4],does not degrade other STAT family members or other cellular proteins
same,STAT3 degradation in tumor,[5],greater than 90%
same,degradation of STAT3 protein in tissues,[6],significant degradation of STAT3 protein in multiple tissues
same,solubility,"[7]; aqueous buffer, pH 4.5 to 9.0",> 10000 µg/mL
same,solubility,"[7]; pH 3, aqueous buffer, pH less than or equal to 3",< 10000 µg/mL
same,GI50,[8],8.1 to 57.4 nM
same,TGI,[9]; 10 mg/kg QW IV,83.8%
same,tumor regression,[9]; 10 mg/kg,complete tumor regression in all animals
same,animals with complete tumor regression,[9]; 20 mg/kg Q2W,4 of 5
same,animals with complete tumor regression,[9]; 20 mg/kg QW IV,4 of 5
same,tumor regression,[9]; 20 mg/kg,complete tumor regression in all animals
same,animals with complete tumor regression,[9]; 30 mg/kg QW IV,5 of 5
same,animals with complete tumor regression,[9]; 40 mg/kg Q2W,5 of 5
same,body weight change,[10],little to slight body weight increases
same,duration of sustained STAT3 degradation after which irreversible growth inhibition occurred,[11],approximately 48 hr
same,time of maximal STAT3 degradation post infusion,"[12]; DL1, Cycle 1 weeks 1 & 2",24 to 96 h
same,STAT3 degradation in PBMCs,[12]; Dose Level 1,50-80%
same,duration of target degradation,[12]; first dose level,At least 72 h
same,maximum STAT3 knockdown in blood,[12]; first dose level,up to 86%
same,mean maximum STAT3 degradation in blood,"[12]; first dose level (DL1, 0.05 mg/kg IV), following first 2 doses of Cycle 1",66%
same,"safety and tolerability (DLTs, SAEs)",[13],safe and well-tolerated with no DLTs or SAEs
same,body weight change,[14],slight to moderate body weight increases
same,STAT3 degradation (concentration),[15],≤ 11.8 ± 2.3 nM
